Test results published in patent publication US10426162B2, “Interaction between antimicrobial quaternary compounds and anionic surfactants” (Ecolab USA Inc., priority 2016, dated 2019).

Assays:
Staphylococcus = assay: Antimicrobial suspension test of quat-anionic surfactant compositions (Examples 6, 8); assay type: cell-based, Staphylococcus aureus; conditions: for kill properties on Staphylococcus: 300, 150 and 75 ppm active Bardac […] + anionic surfactant, 7.5:1 mass ratio, pH 8, FIG. 8; for antimicrobial efficacy against Staphylococcus: FIG. 6A
bacteria = assay: Antimicrobial efficacy at pH 8.0, 7.5 to 1 mass ratio (FIG. 6B); assay type: cell-based; conditions: 7.5/1 mass ratio; for log reduction of bacteria: 300 ppm Bardac […] + anionic surfactant; for antimicrobial efficacy: 150 ppm Bardac […] + anionic surfactant
Experimental: Further examination of the antimicrobial efficacy of a quaternary ammonium compound in association with an anionic surfactant at pH 8.0 was performed as described above.

[1] = Dynamic surface tension (SITA science line t60 bubble pressure); conditions: for dynamic surface tension: 100 ppm Bardac […] + sulfate based anionic surfactant at mole:mole ratio, FIGS. 4A-4C
Experimental: The SITA science line t60 measures the dynamic surface tension of liquids up to the semi-static range. Air bubbles are generated from a capillary with known radius. The bubble pressure is measured as a function of bubble life time, which can be correlated to the surface tension according to the Young-Laplace equation.
The SITA science line t60 was calibrated with DI water. Clean water samples after calibration should have a surface tension of 72.0 ±1.0 mN/m (depending on the quality and temperature). Following calibration, the SITA was programmed to take readings at the desired time intervals (i.e., 0.3, 1.6, 3.0, 9.1 seconds). In order to determine the effects on the surface activity of a 9:1 mass ratio of quaternary ammonium compound with an anionic surfactant the following compositions were prepared.
10-15 mL were transferred into 20 mL vials and immersed in a heated oil bath to 72° C. (160° F.)±2° C. The samples were equilibrated for 10-15 minutes. The samples were individually removed from the oil bath and tested in the SITA. After each sample was tested the SITA's cleaning procedure was run, then the surface tension of DI water was checked to ensure the SITA was adequately clean. If the DI water measurements were not within 72.0±1.0 mN/m, then the cleaning procedure was run again.
The SITA science line t60 was calibrated with DI water. Clean water samples after calibration should have a surface tension of 72.0±1.0 mN/m (depending on the quality and temperature). Following calibration, the SITA was programmed to take readings at the desired time intervals (i.e., 0.3, 1.6, 3.0, 9.1 seconds). In order to determine the effects on the dynamic surface tension of Bardac LF80 and varying concentrations of Acusol 445 the following five solutions were analyzed at pH 7.0; 100 ppm Bardac LF80; 10 ppm Acusol 445; 100 ppm Bardac LF80+10 ppm Acusol 445; 100 ppm Bardac LF80+30 ppm Acusol 445; and 100 ppm Bardac LF80+75 ppm Acusol 445.

Escherichia coli = assay: Antimicrobial suspension test of quat-anionic surfactant compositions (Examples 6-7); assay type: cell-based; conditions: for antimicrobial efficacy against E. coli (log reduction of bacteria): 300 ppm Bardac […] + anionic surfactant, mole:mole ratio, pH 8, FIG. 7; for log reduction of bacteria for E. coli: 300 ppm active Bardac […] + anionic surfactant, 7.5/1 mass ratio, FIG. 6A
E. coli = assay: Third sink sanitizer (Example 12); assay type: cell-based, Escherichia coli; conditions: 500 ppm water hardness, neutral pH versus pH 4.5
Experimental: The antimicrobial efficacy of quaternary ammonium compounds and anionic surfactants for use as a third sink sanitizer were evaluated as shown in Table 10.

[2] = 300 ppm Bardac […] + anionic surfactant, mole:mole ratio
[3] = Bardac […] + anionic sulfate surfactant at mole:mole ratio, FIG. 2
[4] = 100 ppm Bardac […] + anionic carboxylate surfactant at mole:mole ratio, FIG. 3A
[5] = 300 ppm active Bardac […] + anionic surfactant, 7.5/1 mass ratio

Compound | kill properties on Staphylococcus (Staphylococcus) | log reduction of bacteria (bacteria) | dynamic surface activity (surface tension versus bubble life time) [1, 3] | antimicrobial efficacy against E. coli (log reduction of bacteria) (Escherichia coli) | dynamic surface activity (surface tension versus bubble life time) [1, 4] | antimicrobial efficacy (bacteria) | further results
CCCCC(CC)COS(=O)(=O)[O-].[Na+] (centres unmarked) [EH-S, Sodium 2-ethyl hexyl sulfate] | excellent kill properties on Staphylococcus | highest log reduction of bacteria | rapid increase in surface activity | reduce the antimicrobial activity of the quaternary ammonium compound |  |  | antimicrobial efficacy against Staphylococcus (Staphylococcus; [2]): good antimicrobial efficacy against Staphylococcus; dynamic surface tension [1]: synergistic reduction of surface tension; log reduction of bacteria for E. coli (Escherichia coli): highest log reduction of bacteria for E. coli
CC(O)(P(=O)(O)O)P(=O)(O)O [HEDP, 1-hydroxy ethylidene-1,1-diphosphonic acid] |  |  |  |  |  |  | dynamic surface activity ([1]; 100 ppm Bardac LF80 + 10-75 ppm HEDP, pH 7.0, FIG. 18): increase in dynamic surface activity of Bardac LF80 in combination with HEDP
CCCCCCCCS(=O)(=O)[O-].[Na+] [NAS-FAL, sodium n-octanesulfonate] |  | highest log reduction of bacteria | rapid increase in surface activity | reduce the antimicrobial activity of the quaternary ammonium compound |  |  | antimicrobial efficacy against Staphylococcus (Staphylococcus; [2]): good antimicrobial efficacy against Staphylococcus; dynamic surface tension [1]: synergistic trend in regards to reduced surface tension
CCCCCCCC/C=C\CCCCCCCC(=O)O [Oleic acid] |  |  |  |  | capable of increasing the surface activity, to variable extents, compared to Bardac 205M alone |  | 
CCCCCCCCCCCCOS(=O)(=O)[O-].[Na+] [SLS, sodium lauryl sulfate] |  | highest log reduction of bacteria | overall increase in surface activity compared to Bardac 205M alone, but displayed slower dynamics | reduce the antimicrobial activity of the quaternary ammonium compound |  |  | antimicrobial efficacy against Staphylococcus (Staphylococcus; [5]): good antimicrobial efficacy against Staphylococcus; dynamic surface tension [1]: reduced dynamic surface tension, as compared to either the quaternary ammonium compound or the anionic surfactant alone; log reduction of bacteria for E. coli (Escherichia coli): highest log reduction of bacteria for E. coli
CC(C(=O)[O-])N(CC(=O)[O-])CC(=O)[O-].[Na+].[Na+].[Na+] (centres unmarked) [Trilon M, methyl glycine diacetic acid (MGDA)] |  |  |  |  |  |  | dynamic surface activity, effect of pH ([1]; 100 ppm Bardac LF80 + 100 ppm Trilon M at pH 3.0, 9.0, 11.0, FIG. 21): independent of pH
CCCCCCCCCC(=O)O [decanoic acid] | excellent kill properties on Staphylococcus | highest log reduction of bacteria |  | reduce the antimicrobial activity of the quaternary ammonium compound |  | good antimicrobial efficacy | effect on the antimicrobial efficacy of the quat (E. coli): “synergizes” the quat; effect on the antimicrobial efficacy of the quat (E. coli; listed as decanoate): “deactivates” quat; dynamic surface tension, effect of pH ([1]; 100 ppm Bardac […] + 56 ppm decanoic acid mole:mole, pH 3.6-10.2, FIG. 5B): independent of pH; dynamic surface activity (surface tension versus bubble life time) ([1]; 100 ppm Bardac […] alone, 100 ppm Decanoate alone, or 100 ppm Bardac […] + 10-70 ppm Decanoic acid, FIG. 3B): limited surface activity
CCCCC(CC)C(=O)O (centres unmarked) [ethylhexoic acid] | excellent kill properties on Staphylococcus | highest log reduction of bacteria |  | highest log reduction of bacteria | capable of increasing the surface activity, to variable extents, compared to Bardac 205M alone | good antimicrobial efficacy | 
CCCCCCCCCCCC(=O)O [lauric acid] |  |  |  |  | capable of increasing the surface activity, to variable extents, compared to Bardac 205M alone |  | 
CCCCCCCC(=O)O [octanoic acid] | excellent kill properties on Staphylococcus | highest log reduction of bacteria |  | highest log reduction of bacteria | capable of increasing the surface activity, to variable extents, compared to Bardac 205M alone | good antimicrobial efficacy | 
sodium lauryl ether sulfate [SLES] |  | highest log reduction of bacteria | overall increase in surface activity compared to Bardac 205M alone, but displayed slower dynamics | reduce the antimicrobial activity of the quaternary ammonium compound |  | good antimicrobial efficacy | antimicrobial efficacy against Staphylococcus (Staphylococcus; [5]): good antimicrobial efficacy against Staphylococcus; dynamic surface activity (surface tension versus bubble life time) ([1]; 100 ppm Bardac […] + surfactant at 9:1 mass ratio, 160° F., FIG. 1): do not display the synergistic boost in surface activity; log reduction of bacteria for E. coli (Escherichia coli): highest log reduction of bacteria for E. coli
